This assay concerns PTP1B in MCF-7 cell lysate. The assay can be described thus: Proteomic profiling (SP2E enrichment, LC-MS/MS), MCF-7 lysate. The conditions noted are these: 500 µM SM-PO, vs DMSO. More on the design: species or system human. As for the experimental part: Finally, we employed bottom‐up proteomics to validate that the labeled protein corresponds to the intended target PTP1B. For this, first MCF‐7 cell lysate (400 µg) was treated with 500 µM bio‐PO for 4 h. Directly afterwards, we applied a protocol described by the Kielkowski group, termed SP2E, which integrates protein purification with magnetic carboxyl‐coated beads and enrichment using magnetic streptavidin beads (Figure 5c). […] We reasoned that this might be due to the lower abundance of PTP1B in HEK293T compared to MCF‐7 lysate. Therefore, the protocol was repeated by doubling the proteome input to 800 µg. Following this minor adjustment, PTP1B was then enriched in our analysis (>4‐fold) (Figure 5e). […] However, this protein is included in the contamination repository for affinity purification (CRAPome) and appears in about half of such experiments as a contaminant. Given the comparably low PTP1B levels in Ramos lysate, we refrained from attempting pull‐down experiments from this cell line. […]
For proteome labelling using the SP2E workflow, a modified protocol by Becker et al. was followed.^[13] […] Tryptic peptides were eluted from the magnetic beads using a magnetic rack, samples were diluted and analyzed by qToF for purity i.e. absence of detergents and successful trypsin digestion. […]

The values that follow come from publication PMC12970513, “Unsaturated Phosphorus Electrophiles to Probe Protein Tyrosine Phosphatases” (Angewandte Chemie (International Ed. in English), 2026).

For `C#CP(=O)(O)Oc1ccc(CCNC(=O)CCCC[C@@H]2SC[C@@H]3NC(=O)N[C@@H]32)cc1` [SM-PO, 4-(2-biotinamidoethyl)phenyl ethynylphosphonic acid monoester], the “other proteins enriched by SM-PO” value is on record as “adipocyte plasma membrane–associated protein (APMAP) was identified among the enriched proteins”. Moreover, the “enrichment of PTP1B or other phosphatases by SM-PO” value (enrichment >2 log2 fold change, p ≤ 0.05) is “neither PTP1B nor any other phosphatase was significantly enriched”.
